{
  "source": "patent US20240114902A1",
  "about": "“COMPOSITIONS AND METHODS FOR DETERRING OVIPOSITION BY FRUIT FLIES” (The United States of America, as represented by The …, priority 2022, published 2024)",
  "key": {"non-SWD drosophilids": {"tested_on": "non-SWD drosophilids", "assay": "Field test 2: sentinel raspberries in guava orchard, non-SWD drosophilids", "type": "in vivo, D. immigrans, D. simulans, D. melanogaster", "settings": "20 mg CFA or equivalent dose/raspberry, 2 days", "protocol": "(§1) Field test 2 The oviposition deterrence of the 2c key-component blend and its two individual components against SWD and non-SWD drosophilids was tested under field conditions. This experiment was conducted in a guava orchard (19° 36′33.6″N, 155° 04′ 12.6″W) located near Hilo, Hawaii. To monitor oviposition, four sentinel organic raspberries purchased from a local grocery were placed (receptacles stuffed with cotton) inside a deli cup (600 mL; Placon, Madison, Wisconsin, USA). Each cup had nine 1 cm diameter holes spaced 3 cm apart along the cup's circumference and 8.5 cm from the bottom, which allowed the drosophilids to enter the cup. The four raspberries in each cup were surface-treated with one of five treatments: 1) 2c blend at 20 mg CFA equivalent/200 μL hexane/raspberry, 2) C8:0 at 20 mg CFA equivalent/200 μL hexane/raspberry, 3) C10:0 at 20 mg CFA equivalent/200 μL hexane/raspberry, 4) CFA at 20 mg/200 μL hexane/raspberry, or 5) 200 μL of hexane control/raspberry. The deli-cup traps were hung in guava trees 1.5 m from the ground with at least 10 m spacing between adjacent traps. […] Raspberries were removed from the traps, placed in rearing cups (600 mL deli cup with organdy cap), held in environmental chamber (22.1±1.9° C., 71.7±3.1% RH, 16:8 L:D), and monitored over a 2-week period. All emerged adults were counted and identified as SWD or non-SWD drosophilids. […]"}, "Bactrocera dorsalis": {"tested_on": "Bactrocera dorsalis", "assay": "B. dorsalis spatial deterrence, two-choice traps baited with guava juice", "type": "in vivo", "settings": "tested individually", "protocol": "In addition to CFA, a series of odd-numbered carbon fatty acids (C9:0 to C17:0) and fatty acid methyl esters were evaluated for the spatial deterrence to B. dorsalis that results in oviposition reduction. Table 3 below lists the fatty acid methyl esters tested for spatial repellency for Bactrocera dorsalis. […] FIG. 16A, FIG. 16C, FIG. 16E, FIG. 16G, FIG. 16I, FIG. 16K, FIG. 16M, FIG. 16O, FIG. 16Q, and FIG. 16S show the mean numbers (±SEM) of mated female B. dorsalis flies captured, and FIG. 16B, FIG. 16D, FIG. 16F, FIG. 16H, FIG. 16J, FIG. 16L, FIG. 16N, FIG. 16P, FIG. 16R, and FIG. 16T show the number of B. dorsalis eggs oviposited in traps baited with guava juice (control) and with guava juice plus one of the coconut fatty acid methyl ester compounds in two-choice bioassays. For each test, different letter on the bar indicate a significant difference by Tukey-Kramer tests at P<0.05, n=4."}, "[1]": {"tested_on": "Bactrocera dorsalis (OFF)", "assay": "OFF two-choice cage oviposition bioassay on guava juice-infused agar", "type": "in vivo", "design": "key to Activity (OFF oviposition group): Negative: “OFF negative” (i.e., oviposition reduced); Neutral: “OFF neutral” (i.e., no effect on oviposition); Positive: “OFF positive” (i.e., oviposition increased)", "settings": "for OFF oviposition reduction vs control agar: 20 mg/agar, 3 days; for Activity (OFF oviposition group): individual CFA component", "protocol": "Evaluation of oviposition deterrence of CFA: OFF oviposition bioassays were conducted using laboratory two-choice cage experiments with guava juice-infused agar as an oviposition substrate. The agar plates were prepared by pouring 30 mL of boiled agar mixture [1000 mL distilled water, 500 mL guava juice (Deans Foods, El Paso, Texas, USA), 10 g agar, 0.6 g methylparaben, 6.7 mL 95% ethanol, and 3 mL acetic acid] into a 30 mL deli plastic cup to gel. The agar was then covered with a lid to avoid desiccation. The two-choice oviposition bioassay was conducted in screened cages using 20 mated OFF females per cage (12-18 day-old; Jang E B et al., 1997, “Attraction of female oriental fruit fly, Bactrocera dorsalis, to volatile semiochemicals from leaves and extracts of a non-host plant, Panax (Polyscias guilfoylei) in laboratory and olfactometer assays,” J. Chem. Ecol. 23:1389-1401) over 3 days. Each cage was provided with a ball of water-saturated cotton, sugar, and protein hydrolysate in separate 30 mL deli cups and two guava juice agar plates-one treated with CFA diluted in hexane and the other treated with the hexane control. The agar plates were surface-treated either with 200 μL of hexane or 200 μL of CFA in one of 4 doses tested (20, 2, 0.2, and 0.02 mg/200 μL of hexane), placed into a fume hood for 10 minutes prior to use in bioassays, and positioned upside-down (i.e., treated side down) on the center of the outside top of the screened cage 17 cm apart from each other (i.e., one each of control and CFA treated), allowing female flies to oviposit on guava juice agar from the bottom through the cage screen. After three days, OFF eggs in the guava agar were gently separated from the agar in water and the number of eggs were individually counted (up to 100 eggs) or estimated volumetrically at 1 mL OFF eggs=20,000 eggs (Stephanie Gayle personal communication). The experiment was replicated six times per treatment. Determination of bioactive oviposition deterrent components from CFA: A series of bioassays was conducted to identify key deterrent components of CFA for OFF using the same two-choice bioassay design described above. […] Ethanol was used as control and for preparing dilutions of C16:0 and C18:0. Hexane was used as control and for dilutions of the other six compounds tested. Based on the outcome of these bioassays, the eight free fatty acid components were assigned to “OFF negative” (i.e., oviposition reduced), “OFF neutral” (i.e., no effect on oviposition), and “OFF positive” (i.e., oviposition increased) compound groups. Using these groupings, four different blends were formulated (indicated in Table 1), composed at the equivalent ratios and concentrations of each component found in CFA (Zhu J J et al., 2018, supra), to determine key bioactive CFA components in terms of oviposition deterrence on OFF. The approach involved testing the bioactivity of the OFF negative-component blend (4c blend) for oviposition deterrence at three different doses (2, 0.2, and 0.02 mg CFA equivalent/agar), first comparing with hexane control, then with CFA at respective equivalent doses. As the 4c blend was not as effective as CFA, a “OFF negative+OFF neutral” component blend (6c blend) was then formulated, and its effect compared with CFA at 2 and 0.2 mg CFA equivalent/agar. Two subtraction blends with one of the two OFF neutral components removed from the 6c blend (5c-i and 5c-ii blends) were formulated and compared with the 6c blend at 2 and 0.2 mg CFA equivalent/agar. The experiment was replicated four to six times per treatment."}, "Drosophila suzukii (SWD)": {"tested_on": "Drosophila suzukii (SWD)", "assay": "Field test 2: sentinel raspberries in guava orchard, SWD adults emerged", "type": "in vivo", "settings": "20 mg CFA equivalent/raspberry, total over replicates", "protocol": "as §1"}},
  "data": [
    {"smiles": "CCCCCCCC(=O)O", "note": "[C8:0, caprylic acid]", "values": [
      {"measurement": "effect on oviposition from resident (non-SWD) drosophilids", "setting": "non-SWD drosophilids", "result": "not effective"},
      {"measurement": "effect on female B. dorsalis attraction and oviposition to host fruit odors", "setting": "Bactrocera dorsalis", "result": "significantly reduced"},
      {"measurement": "OFF oviposition reduction vs control agar", "setting": "[1]", "result": 95, "unit": "%"},
      {"measurement": "Activity (OFF oviposition group)", "setting": "[1]", "result": "Negative"},
      {"measurement": "OFF oviposition deterrence at lower dose", "setting": "[1]; individual compound, 2 mg dose", "result": "maintained OFF oviposition deterrence"}
    ]},
    {"smiles": "CCCCCCCCCC(=O)O", "note": "[C10:0, capric acid]", "values": [
      {"measurement": "effect on oviposition from resident (non-SWD) drosophilids", "setting": "non-SWD drosophilids", "result": "not effective"},
      {"measurement": "OFF oviposition reduction vs control agar", "setting": "[1]", "result": 92, "unit": "%"},
      {"measurement": "Activity (OFF oviposition group)", "setting": "[1]", "result": "Negative"},
      {"measurement": "SWD adults emerging from treated raspberries", "setting": "Drosophila suzukii (SWD)", "result": 2, "unit": "SWD"}
    ]}
  ]
}
